Structures are written as SMILES.

This note sets out measurements from patent US20260232706A1, “1H-PYRAZOLE ANALOGUES AND METHODS AND USES THEREOF” (University of Manitoba, priority 2022, published 2026).

For series [1], the system named is WG37R mice. The series can be described thus: 14-day acute toxicity assessment in WG37R mice. Type of series: in vivo. The conditions noted are these: for H&E histology compared with control mice / signs of overt degeneration, inflammation and necrosis in examined tissues: single IP 10 mg/kg. The procedure: The WG37R mice were randomly assigned to 2 groups: For the first set of the experiment, a total of 6 animals per group (3 male and 3 female) were used in the study. Group 1: Sham treatment 1 (1:20 DMSO/PBS) and Group 2: NS-1-2 (10 mg/kg body weight). According to requirement of acute toxicity study, 6-10 animals should be used to evaluate the effect of a substance. However, as the new analogues are structurally similar to Edaravone, having a single-dose safety profile of 450 mg/kg, the mortality of the Edaravone analogues at a dose of 10 mg/kg body weight/day was not expected. Considering the above facts, for the present acute study, the minimum number of animals was 6 per group. Morphological alterations, histological changes, and mean body weight assessments for whole set of animals, for both the WG37R control groups (N=6; 1:20, DMSO:PBS) and WG37R treated groups (N=6; NS-1-2; 10 mg/kg bodyweight) were assessed during the 14-day acute toxicity assessment, by giving a single IP injection to the mouse at 2 months of age (see further detail in (iia) below.
For intraperitoneal administration, about 1:20 of DMSO/PBS, at a pH of about 7.4 was used for the suspension of NS-1-2 test substance. Edaravone was dissolved in about 1 mL of about 1 mol/L NaOH and adjusted to about pH 7.4 by adding about 1 mol/L HCl, and then diluted in saline. A volume of about 400 μl from final reconstituted solution was aliquoted and stored in about −80° C., until further use. For acute toxicity experiments, a single dose of about 10 mg/kg bodyweight of NS-1-2 was intraperitoneally injected to group 2, WG37R mice model at the age of 2 months. The WG37R mice in the group 1 received an injection of equal volume of (about 1:20; DMSO:PBS) instead. For chronic toxicity experiments, 120 daily doses of about 10 mg/kg bodyweight of NS-1-2 was intraperitoneally injected to group 4, WG37R mice model at the age of 3 months for 120 days, until the age of 7 months. The WG37R mice in the group 3 received an injection of equal volume of (about 1:20; DMSO:PBS) instead.
Wild type (WT) G37R mice received a single dose (about 0.2 mls) IP injection of Sham suspended in (about 1:20; DMSO:PBS) and a single dose of about 10 mg/kg bodyweight (about 0.2 mls) IP injection of NS-1-2 suspended in about 1:20; DMSO:PBS at the age of 2 months. […] At the experimental endpoint, the mice were first deeply anesthetized with a mixture of about 20% v/v isoflurane/propylene glycol (about 1 ml of the mixture per about 500 ml of bell jar space, University of Manitoba animal care SOP A003) and than exsanguination was done by cutting the animal's right atrium followed by an intracardiac perfusion with about 0.9% NaCl. During perfusion, syringe barrel nosecone was used for prolonged anesthesia. Cardiac perfusion was followed by perfusion with about 4% paraformaldehyde for histology (H&E staining) analysis. Mouse tissues (brain, heart, spinal cord, kidney, liver, muscle, lung, and spleen) were fixed for about 48 h in about 4% buffered formalin at about 4° C. Only the spinal cord was processed after about 24 h to remove the spine and again fixed for about another 24 h. Samples were processed and embedded into paraffin blocks at the Histomorphology and Ultrastructural Imaging platform, Dept. of Human Anatomy and Cell Science, University of Manitoba. Briefly, the embedded tissues were cut into about 5 μm thickness, mounted on super frost plus slides and dried overnight at about 37° C. Slides were deparaffinized in about 2 changes of xylene and rehydrated in descending alcohols (about 2 changes of about 100% Ethanol and about 2 changes of about 95% Ethanol) and tap water. Slides were stained with Harris Haematoxylin followed by differentiation with acid alcohol. After rinsing in tap water, saturated lithium carbonate was used for Bluing the nucleus. After that the slides were rinsed in tap water and counter stained with eosin. […]

The test system of series [2] is WG37R mice. The series can be described thus: 120-day chronic toxicity assessment in WG37R mice. Format: in vivo. The conditions noted are these: 10 mg/kg/day IP daily for 120 days. How it is done: The WG37R mice were randomly assigned to 2 groups: For the second set of the experiment, a total of 6 animals per group (3 male and 3 female) were used in the study. Group 3: Sham treatment 1 (1:20 DMSO/PBS) and Group 4: NS-1-2 (10 mg/kg body weight). According to requirement of acute toxicity study, 6-10 animals should be used to evaluate the effect of a substance. However, as the new analogues are structurally similar to Edaravone, having a single-dose safety profile of 450 mg/kg, the mortality of the Edaravone analogues at a dose of 10 mg/kg body weight/day was not expected. Considering the above facts, for the present acute study, the proposed minimum number of animals was 6 per group. Morphological alterations, histological changes, and mean body weight assessments for whole set of animals, for both the WG37R control groups (N=5; 1:20, DMSO:PBS) and WG37R treated groups (N=6; NS-1-2; 10 mg/kg bodyweight) were assessed during the 120-day chronic toxicity assessment, by giving daily of 120 IP injection to the mouse at 3 months of age. Only one male mice from group 3 (control) was terminated unexpectedly, and was likely due to an accidental error in injection (discussed with Central Animal Care Services, veterinarians and staff). IP injections may be difficult because of the aggressiveness of mice (particularly the male mice, during physical restraint). […]

Series [3] has as its system neuroblastoma-spinal cord hybrid NSC-34 cells. The series can be described thus: Neuroprotective effect/cell viability analysis in NSC-34 cells against H2O2 induced oxidative stress. The settings on record: prophylactic treatment, 250 μM H2O2, FIG. 7A. Format: cell-based.
Setting [4] is: single 10 mg/kg IP dose, 2 weeks monitoring.

Take `Cc1cc(B2OC(C)(C)C(C)(C)O2)n(-c2ccccc2)n1` [NS-1-2, 3-methyl-5-(4,4,5,5-tetramethyl-1,3,2-dioxaborolan-2-yl)-1-phenyl1H-pyrazole]: in series [1] (G37RWT female mice, FIG. 13), the “H&E histology compared with control mice” value is given as “no significant differences with respect to control mice”; the “signs of overt degeneration, inflammation and necrosis in examined tissues” value was “no signs of overt degeneration, inflammation and necrosis”. Besides, in series [1] (G37RWT male mice, FIG. 12), the “H&E histology compared with control mice” value is listed as “no significant differences with respect to control mice”; the “signs of overt degeneration, inflammation and necrosis in examined tissues” value was “no signs of overt degeneration, inflammation and necrosis”. Besides, the “changes in body weight” value in series [1] (acute treatment, 10 mg/kg, FIG. 10) is reported as “did not induce any abnormal changes in the body weight”. In series [1] (setting [4]), the daily general observations result is on record as “normal appearance, normal general behaviour with well-conditioned body condition” and the treatment-related deaths entry is on record as “No acute treatment-related deaths”. Moreover, in series [2], the “clinical signs of toxicity compared to vehicle-treated mice” value is recorded as “no clinical signs of toxicity” and the tolerability entry is given as “seemingly tolerated”. In addition, in series [3], the “protection from loss of cell viability induced by H2O2” value was “protected NSC-34 cells from loss of cell viability”.
